Literature values, collected in US10610595B2, “Stabilized pharmaceutical formulations of insulin analogues and/or insulin derivatives” (SANOFI, priority 2014, dated 2020).

system: blood glucose level; conditions: Lill, Pharmazie in unserer Zeit 2001

Substance	amount corresponding to 1 U
human insulin	approximately 35 μg

same assay, conditions: product information

Substance	amount corresponding to 100 U
insulin aspart	3.5 mg
insulin detemir [insulin determir]	14.2 mg
insulin glargine	3.64 mg
insulin glulisine	3.49 mg
insulin lispro	3.5 mg
